Laboratory results taken from patent US20020034725A1, “SENSITIZATION OF CELLS TO RADIATION AND AND CHEMOTHERAPY” (priority 1996, published 2002).

What was measured:
[1] = molecular target: FTase (Homo sapiens, UniProt P49354+P49356); conditions: cited from earlier work
[2] = test system: wild type c-H-ras; experiment: Western blot of ras farnesylation in untransformed REF and MR4 cells; assay type: cell-based, rat
Description: The oncogene-transfected cells used in this study were all derived from early passage rat embryo fibroblast (REF) by transfection with the pEJ plasmid containing the H-ras gene isolated from the EJ bladder carcinoma. This vector was introduced by calcium phosphate DNA transfer into primary REF, either alone or together with the pMC29 vector containing v-myc. One clone containing both the introduced H-ras gene and the v-myc genes is 3.7 (McKenna et al., 1990, Cancer Res. 50:97-102). 4R and 5R cells were obtained as rare transformants after transfection with the pEJ plasmid alone (McKenna et al., 1993, supra). MR4 cells were immortalized by transfection with an expression vector comprising v-myc linked to a neomycin-resistant selectable marker (McKenna et al., 1991, Radiat. Res. 125:283-287). REF-GG cells were obtained by transforming REF cells with a chimeric H-ras(v12) in which the CAAX motif is CVLL. All cell lines were mycoplasma free.
(§1) Cells were lysed in culture dishes with 1 x reducing Laemmli sample buffer. Samples were boiled, sheared and clarified by centrifugation at 14,000 rpm in a microfuge before storage at −20° C. Samples containing equal amounts of protein were separated on a 12% SDS polyacrylamide gel and electrophoretically transferred to nitrocellulose membranes. Membranes were blocked for 1-2 hours in PBS containing 0.1% Tween-20 and 5% powdered milk before antibody addition. Membranes were probed with monoclonal pan-ras antibody AB-4 (Oncogene Science, Uniondale, N.Y.) at a concentration of 0.5 μg/ml, or with monoclonal H-ras antibody LA069 (1:5000 dilution; Quality Biotech, Camden, N.J.). Detection of protein was accomplished using the ECL chemiluminescence kit (Amersham, Arlington Heights, Ill.). Images were digitized using an Arcus II scanner, and figures were assembled using Adobe Photoshop 3.0.

[3] = test system: T24 bladder carcinoma cells; experiment: Colony formation / surviving fraction at 2 Gray in T24 cells; assay type: cell-based, human
Experimental: FIG. 16B is a graph depicting colony formation following FTI-277 treatment and irradiation of human T24 bladder carcinoma cells. Cells were treated for 24 hours with 5 μM of FTI-277 and were harvested and plated at the indicated cell density in medium containing DMSO (left panel) or 5 μM FTI-277 (right panel) and were immediately irradiated. Cultures were re-fed after 24 hours with medium that contained no inhibitor. […] The cells were allowed to grow for two weeks prior to scoring for colony formation. Open squares: unirradiated cells; closed circles: 2 Gray irradiated cells. The surviving fraction of cells was calculated as described in the description of FIG. 14B. The correlation coefficient for linear regression analysis (r^2) was greater than 0.95 in all cases.
In view of the fact that accumulation of unfarnesylated H-ras in T24 cells takes longer, these cells were pretreated for 24 hours prior to irradiation and subsequent assay for clonogenic survival. An additional consideration raised by pretreatment of cells is that FTI-277 and other farnesyltransferase inhibitors can affect the farnesylation of rho proteins involved in cell morphology and thus alter cell adherence. The pretreatment of T24 cells with FTI-277 reduced the ability of these cells to form discrete colonies after replating, resulting in the formation of secondary satellite colonies. […]

[4] = test system: mouse prostate tumor cells transformed with H-ras^v12 and myc; experiment: Radiation induced apoptosis of mouse prostate tumor cells; assay type: cell-based; conditions: doses which inhibited ras farnesylation, 10 Gray
Experimental: FIG. 13B is a graph depicting the effects of the inhibitor, FTI-277, at the concentrations indicated (μM) on radiation induced apoptosis of prostate tumor cells. Cells were treated with FTI-277 for 24 hours before irradiation with 10 Gray. Apoptosis was quantitated 24 hours after irradiation by scoring for changes in nuclear morphology following staining of the cells with propidium iodide. Panel A depicts prostate tumor cells cultured from a primary tumor. Panel B depicts prostate tumor cells cultured from an isolated metastasis derived from the tumor.
3×10^3 cells/well in 24-well plates were allowed to attach for 12 hours and were then treated with medium containing FTI-277 in DMSO or an equivalent volume of DMSO without inhibitor. Twenty four hours after irradiation with 10 Gray using the irradiator described above, both adherent and non-adherent cells were harvested. Cells were stained with propidium iodide (Muschel et al., 1995, Cancer Res. 55:995-998). A minimum of three independent fields of 100 cells were counted for each sample. Scoring of samples was performed in a double blind manner.

[5] = test system: K-ras; experiment: Western blot of K-ras prenylation in SW480 and Panc-1 cells; assay type: cell-based, human; conditions: SW480 cells, 48 hours
Experimental: FIG. 17A is an image of a Western blot depicting inhibition by FTI-277 of K-ras prenylation in human SW480 colon carcinoma cells. SW480 cells were treated with the indicated concentrations of FTI-277 (μM) for 48 hours. Samples were harvested and cell lysates were analyzed by Western blotting using either a H-ras monoclonal antibody (top) or a K-ras monoclonal antibody (bottom). Arrows indicate unfarnesylated ras bands.
FIG. 18A is an image of a Western blot depicting the specific inhibition of K-ras prenylation by combined FTI-277 and GGTI-298 treatment. Log phase cultures of human pancreatic carcinoma cells (Panc-1) and colon carcinoma cells (SW480) were treated with 5 μM FTI and 8 μM GGTI 298 for 48 hours. Cell samples were then harvested and cell lysates were prepared for Western blot analysis using monoclonal antibodies to K-ras and nuclear lamin B. The electrophoretic mobility of the K-ras mutant in SW480 is slower than that of the mutant K-ras in Panc-1 cells.

[6] = test system: H-ras^v12; experiment: Western blot of H-ras farnesylation in T24 bladder carcinoma cells; assay type: cell-based, human; conditions: 5 μM
Experimental: FIG. 16A is an image of a Western blot depicting changes in farnesylation of H-ras^v12 following treatment of human bladder carcinoma cells with FTI-277. T24 bladder carcinoma cells were treated with 5 μM of FTI-277 for the times indicated (hours). Samples were harvested and cell lysates were prepared for Western blot analysis using anti-H-ras antibody. Untreated control samples harvested at 0 and 30 hours are shown for comparison.
as §1

What does the source list for COC(=O)[C@H](CCSC)NC(=O)c1ccc(NC[C@@H](N)CS)cc1-c1ccccc1 [FTI-277]?
FTase inhibition [1]: inhibited Ftase activity; migration of ras ([2]; MR4 cells, up to 10 μm, pan-ras antibody): no changes in the migration of ras; H-ras farnesylation status ([2]; untransformed REF, doses of up to 30 μM): majority of the H-ras remained in the farnesylated form; surviving fraction at 2 Gray irradiation ([3]; 5 μM, 24 hours pretreatment): 0.35; colony formation without irradiation ([3]; FTI-277 treatment alone): did not significantly reduce the fraction of wells giving rise to colonies; radiation-induced apoptosis [4]: significant increase in apoptosis; concentration at which altered migration of K-ras became evident [5]: 30 µM; time after which unfarnesylated H-ras was detectable [6]: 5 h; time required to achieve 50% of ras in the unfarnesylated form [6]: 24 h
